From patent US7521439B2, “Glucocorticoid receptor ligands for the treatment of metabolic disorders” (Karo Bio AB, priority 2002, dated 2009)
Like-named read-outs stand apart in the source and are kept apart here.

Tests used:
[1] = biological target: T1, progesterone receptor (PR) (Homo sapiens, UniProt P06401); assay: Radioligand binding assay for progesterone receptor (similar protocol); settings: similar protocol to GR binding
T1 sequence (P06401 1-933): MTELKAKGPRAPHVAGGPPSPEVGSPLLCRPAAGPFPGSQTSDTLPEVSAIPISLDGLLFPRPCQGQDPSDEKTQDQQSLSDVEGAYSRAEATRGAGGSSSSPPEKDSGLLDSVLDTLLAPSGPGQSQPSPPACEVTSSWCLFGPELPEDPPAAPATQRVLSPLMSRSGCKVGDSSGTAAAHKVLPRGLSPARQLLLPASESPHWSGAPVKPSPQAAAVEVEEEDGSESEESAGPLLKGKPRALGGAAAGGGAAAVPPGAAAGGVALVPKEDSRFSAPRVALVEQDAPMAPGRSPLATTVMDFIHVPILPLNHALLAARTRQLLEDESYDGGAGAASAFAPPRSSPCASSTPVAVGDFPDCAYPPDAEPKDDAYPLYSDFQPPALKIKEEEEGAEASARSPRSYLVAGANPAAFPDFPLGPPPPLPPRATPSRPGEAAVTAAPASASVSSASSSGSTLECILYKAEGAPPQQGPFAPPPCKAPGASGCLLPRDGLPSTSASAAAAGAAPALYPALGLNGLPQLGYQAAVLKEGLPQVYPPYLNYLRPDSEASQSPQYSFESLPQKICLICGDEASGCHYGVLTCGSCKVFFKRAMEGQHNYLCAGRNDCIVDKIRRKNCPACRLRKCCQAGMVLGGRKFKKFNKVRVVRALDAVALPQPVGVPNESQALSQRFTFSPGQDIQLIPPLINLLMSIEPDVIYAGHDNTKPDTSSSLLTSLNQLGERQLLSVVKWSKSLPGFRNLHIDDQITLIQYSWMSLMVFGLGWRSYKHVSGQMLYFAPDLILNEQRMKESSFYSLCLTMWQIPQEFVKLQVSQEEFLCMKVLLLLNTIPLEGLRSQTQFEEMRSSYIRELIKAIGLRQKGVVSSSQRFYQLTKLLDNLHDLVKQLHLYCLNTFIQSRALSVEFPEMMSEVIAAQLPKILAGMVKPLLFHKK
Excerpt: Methods for Radioligand Binding Studies with Human Glucocorticoid and Progesterone Receptor Cytosol A similar protocol was employed to measure affinity of the compounds of the present invention for progesterone receptor (PR).

[2] = biological target: T2, Human glucocorticoid receptors (hGR) (Homo sapiens, UniProt P04150); assay: Radioligand filter binding assay, displacement of 3(H)-dexamethasone from human glucocorticoid receptor
T2 construct: made in house; host or cells: Sf9 insect cells, baculovirus (BAC-TO-BAC)
T2 sequence (P04150 1-777): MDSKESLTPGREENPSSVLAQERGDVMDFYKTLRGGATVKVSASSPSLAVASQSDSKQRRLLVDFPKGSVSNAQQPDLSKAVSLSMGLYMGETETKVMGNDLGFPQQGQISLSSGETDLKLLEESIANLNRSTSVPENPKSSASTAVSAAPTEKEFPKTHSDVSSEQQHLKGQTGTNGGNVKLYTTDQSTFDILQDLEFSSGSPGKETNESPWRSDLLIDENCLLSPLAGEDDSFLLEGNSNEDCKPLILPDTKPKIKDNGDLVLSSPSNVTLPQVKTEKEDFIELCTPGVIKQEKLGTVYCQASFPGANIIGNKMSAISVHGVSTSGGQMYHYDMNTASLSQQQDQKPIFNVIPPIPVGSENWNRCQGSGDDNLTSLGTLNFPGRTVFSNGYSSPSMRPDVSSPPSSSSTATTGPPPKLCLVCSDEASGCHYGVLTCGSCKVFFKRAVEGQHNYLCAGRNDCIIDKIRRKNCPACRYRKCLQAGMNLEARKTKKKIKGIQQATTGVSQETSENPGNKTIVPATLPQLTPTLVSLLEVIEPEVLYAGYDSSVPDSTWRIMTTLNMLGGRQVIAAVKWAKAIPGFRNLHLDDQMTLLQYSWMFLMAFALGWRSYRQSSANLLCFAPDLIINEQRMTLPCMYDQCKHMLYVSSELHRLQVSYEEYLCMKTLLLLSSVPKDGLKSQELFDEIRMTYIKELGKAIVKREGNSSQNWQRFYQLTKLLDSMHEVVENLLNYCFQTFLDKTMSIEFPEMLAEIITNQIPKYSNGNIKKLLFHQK
Excerpt: Methods for Radioligand Binding Studies with Human Glucocorticoid and Progesterone Receptor Cytosol
Dexamethasone hereafter referred to as dex was purchased from SIGMA. […] Human glucocorticoid receptors were extracted from Sf9 cells infected with a recombinant baculovirus transfer vector containing the cloned hGR genes. Recombinant baculovirus was generated utilizing the BAC-TO-BAC expression system (Life Technologies) in accordance to instruction from the supplier. The hGR coding sequences were cloned into a baculovirus transfer vector by standard techniques. The recombinant baculoviruses expressing hGR were amplified and used to infect Sf9 cells. Infected cells were harvested 48 hrs post infection. […] The concentration of hGR in the extract was measured as specific ^3(H)-dex binding with the G25-assay as described in J. Steroid Biochem. Molec. […] The extract was aliquoted and stored at −70° C.
The filter binding assay: Dilution series of the test compounds and dexamethasone as reference were made from 10 mM (1 mM dex) stock solutions in DMSO. 10 μl of the dilutions was added in duplicates to the wells. The cell extracts were diluted 10 fold in EPMo+MTG buffer (1 mM EDTA, HPO4 20 mM (pH8), 6 mM MTG). […] 110μl of the diluted ^3(H)-dex were added to the wells. The final concentration of hGR in the experiment was estimated to 1 nM. All preparations were made in […] on ice and with +4° C. temperated buffers. The plates were incubated overnight at +4° C. (15-20 hrs.).
The incubation was stopped by filtration through GF/B filter on the Tomtec Cellharvester. The filtration on the Tomtec Cellharvester was programmed as follows: 1) Preparation before filtration with EP buffer (1 mM EDTA 20 mM HPO4 (pH8)) 2×(Wash/Asp 0.6 sec., Asp 0.5 sec.); 2) Prewet of GF/B filter with EP+PEI buffer (EP buffer, 0.3% Polyethylenimine) (Asp 0.8 sec.); 3) Filtration/harvesting of the 96-well incubation plate 3×(Wash/Asp 0.6 sec., Asp 0.5 sec.). The GF/B filter was dried for at least 1 hr at 65° C. A MeltiLex scintillation wax was melted onto the filter with the Microsealer. The filter was placed in a samplebag, which was thereafter trimmed with scissors to fit the filter cassette. The cassette were placed in the Microbeta and measured for 1 min/position, returning ccpm (corrected counts per minute).
The Microbeta-instrument generates the mean cpm (counts per minute) value/minute and corrects for individual variations between the detectors thus generating corrected cpm values.

HPA axis = assay: Mouse hypothalamic-pituitary-adrenal (HPA) activation model; assay type: in vivo; settings: for circulating level of ACTH / circulating level of corticosterone: oral dose, normal mice (FIG. 3)
Excerpt: Hypothalamic stimulation triggered by a suppressed systemic glucocorticoid leads to the secretion of adrenocorticotrophic hormone (ACTH) by the pituitary gland. ACTH acts on the adrenal gland to stimulate the production of endogenous glucorticoids like cortisol (in man) or corticosterone (in rodents). […] Analogs like Compound 1 may thus have an improved efficacy and safety profile for the treatment of metabolic diseases like diabetes and obesity.
Mouse Hypothalamic-Pituitary-Adrenal (HPA) Activation Model
Non-fasted CD-1 male mice, weighing approximately 25 g, are dosed with vehicle, RU-486 (30-100 mg/kg), or GR antagonist (30-100 mg/kg) at 0800 hr when corticosterone levels are low. Two hours later, mice are euthanized with CO2, bled by cardiac puncture, and plasma analyzed for corticosterone by mass spectroscopy and for adrenocorticotropic hormone (ACTH) levels by ELISA. Brains and plasma are also removed for analysis of GR antagonist levels.

GR-mediated responses = assay: Rat prednisolone challenge model (hepatic TAT, hepatic glycogen, blood lymphocytes); assay type: in vivo; settings: for inhibition at 100 mg/kg: Rattus norvegicus, Lymphocyte, po, 100 mpk orally in rats, prednisolone challenge
Excerpt: The analysis of both in vivo activity and liver selectivity may be accomplished using a single pharmacology study, involving a prednisolone challenge administered to rats.
Systemic glucocorticoid activity leads to an anti-inflammatory response, which is the result of a GR-linked suppression of lymphocytic activity.
Rat Prednisolone Challenge Model for Evaluation of Liver-Targeted Glucocorticoid Receptor Antagonists
Six hours following the prednisolone challenge, rats are euthanized with CO2, and bled via cardiac puncture for evaluation of blood lymphocytes and plasma drug levels. 7 mm liver biopsy punches are harvested for evaluation of tyrosine aminotransferase (TAT), hepatic glycogen and GR antagonist levels. Additional liver tissue, retroperitoneal fat, skeletal muscle, kidney and skin from an ear biopsy are also removed for isolation an evaluation of mRNA.

[3] = read-out: Inhibition of GR-mediated responses: Glycogen
[4] = read-out: Inhibition of GR-mediated responses: Lymphocytes
[5] = read-out: Inhibition of GR-mediated responses: TAT
[6] = 100 mpk, CD-1 male mice, two hours after dosing
[7] = 30 mpk orally, rat prednisolone challenge
[8] = rat prednisolone challenge, 100 mpk
[9] = 10 mpk prednisolone, normal rats, 7-hour experiment

| Compound | IC50 [1] [nM] | IC50 [2] [nM] | circulating level of ACTH (HPA axis) | circulating level of corticosterone (HPA axis) | inhibition at 100 mg/kg (GR-mediated responses; [3]) [%] | inhibition at 100 mg/kg (GR-mediated responses; [4]) [%] | inhibition at 100 mg/kg (GR-mediated responses; [5]) [%] | other results |
| --- | --- | --- | --- | --- | --- | --- | --- | --- |
| CC#C[C@]1(O)CC[C@H]2[C@@H]3CCC4=CC(=O)CCC4=C3[C@@H](c3ccc(N(C)CCO[C@H]4CC[C@@]5(C)[C@@H](C4)C[C@@H](O)[C@@H]4[C@@H]5C[C@H](O)[C@]5(C)[C@@H]([C@H](C)CCC(=O)O)CC[C@@H]45)c(F)c3)C[C@@]21C [Example 3, (3β,5β,7α,12α)-7,12-dihydroxy-3-{2-[{4-[17β-hydroxy-3-oxo-17α-prop-1-ynylestra-4,9-dien-11β-yl]-2-fluorophenyl}(methyl)amino]ethoxy}cholan-24-oic acid] | 4.5 | 2 |  |  |  |  |  |  |
| CC#C[C@]1(O)CC[C@H]2[C@@H]3CCC4=CC(=O)CCC4=C3[C@@H](c3ccc(N(C)CCO[C@H]4CC[C@@]5(C)[C@@H](C4)C[C@@H](O)[C@@H]4[C@@H]5C[C@H](O)[C@]5(C)[C@@H]([C@H](C)CCC(=O)O)CC[C@@H]45)cc3)C[C@@]21C [Example 1, (3β,5β,7α,12α)-7,12-Dihydroxy-3-{2-[{4-[17β-hydroxy-3-oxo-17α-prop-1-ynylestra-4,9-dien-11β-yl]phenyl}(methyl)amino]ethoxy}cholan-24-oic acid] | 8.7 | 3.6 | lack of change | lack of change | 111 | 35 | 85 | stimulation of the HPA axis (HPA axis; mice, dose similar to RU-38486 (FIG. 3)): fails to stimulate; selectivity for hepatic GR vs. systemic effects (GR-mediated responses; rat prednisolone challenge, doses as in Table I): liver-selective pharmacology |
| CC#C[C@]1(O)[C@H](C)C[C@H]2[C@@H]3CCC4=CC(=O)CCC4=C3[C@@H](c3ccc(N(C)CCO[C@H]4CC[C@@]5(C)[C@@H](C4)C[C@@H](O)[C@@H]4[C@@H]5C[C@H](O)[C@]5(C)[C@@H]([C@H](C)CCC(=O)O)CC[C@@H]45)cc3)C[C@@]21C [Example 4, (3β,5β,7α,12α)-7,12-Dihydroxy-3-{2-[{4-[17β-hydroxy-16α-methyl-3-oxo17α-prop-1-ynylestra-4,9-dien-11β-yl]phenyl}(methyl)amino]ethoxy}cholan-24-oic acid] | 1.6 |  |  |  |  |  |  | IC50 ([2]; 3(H)-dex displacement, hGR extract from Sf9 cells, read-out: GR Binding (IC50)): 3.3 nM |
| CC#C[C@]1(O)CC[C@H]2[C@@H]3CCC4=CC(=O)CCC4=C3[C@@H](c3ccc(OCCO[C@H]4CC[C@@]5(C)C(C4)C[C@@H](O)[C@H]4[C@@H]6CC[C@H]([C@H](C)CCC(=O)O)[C@@]6(C)[C@@H](O)C[C@@H]45)c(C)c3)C[C@@]21C (stereo partly drawn) [Example 2, (3β,7α,12α)-7,12-dihydroxy-3-(2-(4-(17β-hydroxy-3-oxo-17α-prop-1-ynylestra-4,9-dien-11β-yl)-2-methylphenoxy)ethoxy)cholan-24-oic acid] | 2.3 | 2.8 |  |  |  |  |  |  |
| CC#C[C@]1(O)CC[C@H]2[C@@H]3CCC4=CC(=O)CCC4=C3[C@@H](c3ccc(N(C)C)cc3)C[C@@]21C [RU-38486] |  |  | increases | increases | 74 | 108 | 100 | ACTH level compared to vehicle controls (HPA axis; [6]): significantly increases; corticosterone level compared to vehicle controls (HPA axis; [6]): significantly increases; block of agonist effect on TAT induction (GR-mediated responses; [7]): completely blocks; block of lymphopenic response produced by prednisolone (GR-mediated responses; [7]): ability to block; suppression of prednisolone-induced deposition of hepatic glycogen (GR-mediated responses; [7]): completely suppressed; block of hepatic glucocorticoid responses to prednisolone (TAT, glycogen) (GR-mediated responses; [8]): completely antagonizes; effect on systemic (peripheral) glucocorticoid response to prednisolone (GR-mediated responses; [8]): completely antagonizes |
| C[C@]12C=CC(=O)C=C1CC[C@@H]1[C@@H]2[C@@H](O)C[C@@]2(C)[C@H]1CC[C@]2(O)C(=O)CO [prednisolone] |  |  |  |  |  |  |  | circulating lymphocyte levels (GR-mediated responses; 10 mpk prednisolone, normal rats): decrease; increase in the deposition of hepatic glycogen (GR-mediated responses; [9]): ~60%; induction of tyrosine aminotransferase (TAT) (GR-mediated responses; [9]): 3 fold |
